In PubChem BioAssay (NCI):
Values joined by “and” are separate entries in the source; they are usually repeats but may differ in a detail not shown here. Identical values can stand only once.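 Compound exposure: 48 hours, 5 concentrations, 96-well plates. GI50 = concentration required for 50% inhibition of growth. At the TGI there is no net growth.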

Assays:
Assay in all cases: growth of human tumour cells (NCI), 48 h
SK-OV-3 ovarian = test system: SK-OV-3 ovarian
MOLT-4 leukemia = test system: MOLT-4 leukemia
IGROV1 ovarian = test system: IGROV1 ovarian
EKVX NSCLC = test system: EKVX NSCLC
DMS 273 small cell lung = test system: DMS 273 small cell lung
SNB-78 CNS = test system: SNB-78 CNS
HOP-18 NSCLC = test system: HOP-18 NSCLC
NCI-H226 lung = test system: NCI-H226 lung
DLD-1 colon = test system: DLD-1 colon
HS 578T breast = test system: HS 578T breast

Row | SMILES | TGI (SK-OV-3 ovarian) | TGI (MOLT-4 leukemia) | TGI (IGROV1 ovarian) | TGI (EKVX NSCLC) | TGI (DMS 273 small cell lung) | TGI (SNB-78 CNS) | TGI (HOP-18 NSCLC) | TGI (NCI-H226 lung) | TGI (DLD-1 colon) | GI50 (SK-OV-3 ovarian) | GI50 (MOLT-4 leukemia) | GI50 (HS 578T breast) | TGI (HS 578T breast) | GI50 (IGROV1 ovarian) | GI50 (EKVX NSCLC) | GI50 (DMS 273 small cell lung) | GI50 (SNB-78 CNS) | GI50 (HOP-18 NSCLC) | GI50 (NCI-H226 lung) | GI50 (DLD-1 colon)
1 | Cc1ccccc1-n1c(C)nc(-c2ccccc2)cc1=O | > 100 µM | > 100 µM | > 100 µM | > 100 µM | > 100 µM | > 100 µM | > 100 µM | > 100 µM | > 100 µM | – | – | – | – | – | – | – | – | – | – | –
2 | O=C(O)c1ccccc1NC(=O)C1CCCCC1 | > 100 µM | > 100 µM | > 100 µM | > 100 µM | > 100 µM | > 100 µM | – | > 100 µM | > 100 µM | – | – | – | – | – | – | – | – | – | – | –
3 | C[C@H]1C(=O)CC[C@]2(C)CCC(C(C)(C)O)CC12O (some centres undefined) | > 100 µM | > 100 µM | > 100 µM | > 100 µM | > 100 µM | > 100 µM | > 100 µM | > 100 µM | > 100 µM | – | – | – | – | – | – | – | – | – | – | –
4 | c1ccc2c(c1)C1=NCCN1c1ccccc1-2 | 29.9 µM | 8.99 µM | 17.2 µM | 35.5 µM | 4.88 µM | 18 µM | 9.19 µM | – | 9.02 µM | – | – | – | – | – | – | – | – | – | – | –
5 | O=S(=O)(C/C(=N\O)c1ccccc1)c1ccccc1 | > 100 µM | > 100 µM | > 100 µM | > 100 µM | > 100 µM | > 100 µM | > 100 µM | > 100 µM | > 100 µM | – | – | – | – | – | – | – | – | – | – | –
6 | [Cl][Cd][Cl] | > 60 µM and 26 µM | > 83.4 µM and 82.9 µM | > 60.6 µM and 16.1 µM | 52 µM and 19.9 µM | 31.2 µM | 56.9 µM | > 62.1 µM | > 69.7 µM and 43.6 µM | – | 44.3 µM and 12.4 µM | 31.4 µM and 11.8 µM | 10.1 µM | 57.4 µM | 4.32 µM and 29.7 µM and 8.4 µM | 24.7 µM and 9.95 µM | 15.1 µM | 21.3 µM | > 42.3 µM | > 44 µM and 11.9 µM | > 58.6 µM
7 | Nc1n[nH]c(CCc2nc(N)n[nH]2)n1 | > 100 µM | > 100 µM | > 100 µM | > 100 µM | > 100 µM | > 100 µM | – | > 100 µM | > 100 µM | – | – | – | – | – | – | – | – | – | – | –
8 | COC1=C2CC(C)CC(OC)C(O)C(C)/C=C(\C)C(OC(N)=O)C(OC)/C=C\C=C(/C)C(=O)NC(=C(/C=N/N3CCCCC3)C1=O)C2=O (centres undefined) | 55.7 µM | 7.39 µM | 27 µM | 14.7 µM | 27.6 µM | 48.3 µM | 27.2 µM | 34.5 µM | 23.4 µM | – | – | – | – | – | – | – | – | – | – | –
9 | Cc1cc2c(C)n(Cc3ccc(Cl)cc3Cl)nc2c(C(=O)O)c1C | > 100 µM | > 100 µM | > 100 µM | > 100 µM | > 100 µM | > 100 µM | > 100 µM | > 100 µM | > 100 µM | – | – | – | – | – | – | – | – | – | – | –
10 | CC1=CC(=O)N(c2c(C)cccc2Cl)C(C)N1 (centres undefined) | > 100 µM | > 100 µM | > 100 µM | > 100 µM | > 100 µM | > 100 µM | > 100 µM | > 100 µM | > 100 µM | – | – | – | – | – | – | – | – | – | – | –
11 | O=C1C=CC(CC(=O)c2ccc3ccccc3c2)O1 (centres undefined) | > 100 µM | 65.6 µM | 65.2 µM | > 100 µM | 45.3 µM | > 100 µM | > 100 µM | – | 80.6 µM | – | – | – | – | – | – | – | – | – | – | –
12 | COC(=O)C1=CC2OC1(C)CCC2=O (centres undefined) | > 100 µM | > 100 µM | > 100 µM | > 100 µM | > 100 µM | – | – | > 100 µM | > 100 µM | – | – | – | – | – | – | – | – | – | – | –
13 | COc1ccc2c(c1OC)C(=O)c1cnccc1C2=O | > 100 µM | > 100 µM | > 100 µM | > 100 µM | > 100 µM | > 100 µM | > 100 µM | > 100 µM | > 100 µM | – | – | – | – | – | – | – | – | – | – | –
14 | CCCCCCC(/C=N/O)C(C)(O)CCC (centres undefined) | – | > 100 µM | > 100 µM | > 100 µM | > 100 µM | > 100 µM | – | > 100 µM | > 100 µM | – | – | – | – | – | – | – | – | – | – | –
15 | O=C1c2nc3n(c2C(=O)c2c1nc1n2CCC1)CCC3 | 92.2 µM | > 67.6 µM | 24.5 µM | 31.2 µM | 12.7 µM | 31.1 µM | 27.2 µM | 19.1 µM | 18.2 µM | – | – | – | – | – | – | – | – | – | 7.84 µM | –
16 | O=[N+]([O-])c1ccc(Cl)cc1C1SCc2nc3ccccc3n21 (centres undefined) | > 100 µM | > 100 µM | > 100 µM | > 100 µM | > 100 µM | > 100 µM | > 100 µM | – | > 100 µM | – | – | – | – | – | – | – | – | – | – | –
17 | CC(=O)Oc1ccc(C(c2ccc(OC(C)=O)cc2)c2ccccn2)cc1 | > 100 µM and 98.3 µM | > 100 µM | > 100 µM | > 100 µM and 57.1 µM | > 100 µM | – | > 100 µM | > 100 µM | > 100 µM | 31.7 µM | 40.5 µM | – | 0.677 µM and 0.638 µM | 19.9 µM | – | – | – | – | 40.2 µM | –
18 | O=C(NO)c1ccc(O)c(O)c1 | > 100 µM | > 100 µM | > 100 µM | > 100 µM | 77.8 µM | > 100 µM | > 100 µM | > 100 µM | > 100 µM | – | – | – | – | – | – | – | – | – | – | –
19 | O=C(O)C1=C(C(=O)Nc2ccc(NC(=O)C3=C(C(=O)O)C4C=CC3C4)cc2)C2C=CC1C2 | > 100 µM | > 100 µM | > 100 µM | > 100 µM | > 100 µM | > 100 µM | > 100 µM | – | > 100 µM | – | – | – | – | – | – | – | – | – | – | –
20 | COC(=O)C1=C(c2ccc3c(c2)OCO3)OC(c2cc(OC)c(OC)c(OC)c2)C1 (centres undefined) | 8.09 µM | > 100 µM | 9.53 µM | > 100 µM | 58.8 µM | > 100 µM | > 100 µM | > 100 µM | > 100 µM | – | – | – | – | – | – | – | – | – | – | –
21 | COC1OC2COC(c3ccccc3)OC2C(O)C1Br (centres undefined) | – | > 100 µM | > 100 µM | – | > 100 µM | > 100 µM | > 100 µM | – | > 100 µM | – | – | – | – | – | – | – | – | – | – | –
22 | O=C(Nc1ccn(CCI)c(=O)n1)c1ccccc1 | > 100 µM | – | > 100 µM | > 100 µM | > 100 µM | > 100 µM | > 100 µM | > 100 µM | > 100 µM | – | – | – | – | – | – | – | – | – | – | –
